Experimental data: PMC10785756, “Hydrolysis of Antimicrobial Peptides by Extracellular Peptidases in Wastewater” (Environmental Science & Technology, 2023)
Like-named read-outs stand apart in the source and are kept apart here. One block for each substance: values may come before it.

Tests used:
[1] = tested on: extracellular wastewater peptidases (pool I extracts from WWTP influents); assay: AMP incubation with active dissolved extracellular wastewater extracts (pool I) from WWTP influents; type: in vitro ADME
Method: We took samples from four municipal WWTPs in Austria ([…], and D). […] Where existing, we sampled the following five stages along the wastewater treatment process: influent, primary clarification tank, high-load and low-load aeration tanks, and effluent. […] We took 2 × 500 mL grab samples at each stage using a plastic beaker. We transferred the samples into 500 mL glass bottles leaving roughly one-third of the bottle empty, transported them to the lab, and pooled duplicate samples for further processing. Enzyme extraction started within 1 h after sampling. For total suspended solid (TSS) determination, we filtered 20 mL of each sample through a preweighed, dry GF/F Whatman glass microfiber filter (Sigma-Aldrich, WHA1825047) using a vacuum filtration system, dried the filters at 105 °C for 2 h, and determined the TSS contents from the weight difference. […] Otherwise, the extraction process was the same for pools I and II. All extractions were performed in triplicate, and extracts were kept on ice until further use. […] Triplicate incubations were conducted for the autoclaved and active extracts with spiked AMP. […] This protocol step was conducted according to Luther et al.[9] We then transferred the supernatant into a fresh 1.5 mL protein LoBind Eppendorf tube and dried it in a SpeedVac vacuum concentrator (30 °C for approximately 6 h). […] We transferred the solution into QuanRecovery HPLC vials (Waters, 186009186) and stored the samples at -20 °C until analysis. For method development, selected (and indicated) samples were sonicated (Sonorex Super RK 106, Bandelin, max 480 W) for 5 min at different steps of the sample preparation process. We analyzed AMPs using UHPLC (Thermo Scientific Dionex Ultimate 3000) equipped with a Waters XSelect PREMIER CSH C18 column (article number: 186009870) coupled to HRMS (Thermo QExactive). We injected 10 μL of each sample and applied a flow rate of 0.4 mL/min using the following eluent gradient (A: ultrapure water, B: […] Detection parameters were chosen as follows: […] We used Skyline (version 20.2.0.343) to analyze the raw data. […] For products, the peak area had to either increase throughout the incubation experiment or first increase and then decrease.

[2] = AMP incubation with autoclaved wastewater extracts (abiotic removal / adsorption control); type: physicochemical; details: wastewater extracts (pool I influent)
Method: We thawed enzyme extracts and transferred 1.35 mL to 2 mL protein LoBind Eppendorf tubes. For autoclaved controls, extract aliquots of 1.5 mL were autoclaved for 20 min at 121 °C and 2 bar (Wolf Sanoclav LaS-MCS-J) and 1.35 mL of the autoclaved extracts were transferred into 2 mL protein LoBind Eppendorf tubes. We then spiked 150 μL of the AMP stock solution containing all AMPs at 10 μg/mL to the enzyme extracts or 1.35 mL of ultrapure water. […] Triplicate incubations were conducted for the autoclaved and active extracts with spiked AMP. After AMP spiking, we mixed the solutions by inverting the vials and incubating them at 20 °C under horizontal shaking at 300 rpm. […]
We analyzed AMPs using UHPLC (Thermo Scientific Dionex Ultimate 3000) equipped with a Waters XSelect PREMIER CSH C18 column (article number: 186009870) coupled to HRMS (Thermo QExactive). […]
In parallel to AMP incubations with active enzyme extracts, we conducted AMP incubations with autoclaved enzyme extracts to control for abiotic removal (e.g., due to adsorption to components in wastewater extracts). Autoclaving decreased the peptidase activity, as measured with the above-mentioned fluorogenic probe-based assay, of wastewater extracts to <3% of their original activity. […] We determined the AMP concentrations in unspiked enzyme extracts, which were below the limit of quantification (LOQ) for all AMPs in all WWTPs.

[3] = tested on: extracellular wastewater peptidases (pool I extracts from WWTP influents); assay: Absolute quantification of transformation products (TPs) formed during AMP incubation with wastewater extracts; type: in vitro ADME
Method: We thawed enzyme extracts and transferred 1.35 mL to 2 mL protein LoBind Eppendorf tubes. For autoclaved controls, extract aliquots of 1.5 mL were autoclaved for 20 min at 121 °C and 2 bar (Wolf Sanoclav LaS-MCS-J) and 1.35 mL of the autoclaved extracts were transferred into 2 mL protein LoBind Eppendorf tubes. We then spiked 150 μL of the AMP stock solution containing all AMPs at 10 μg/mL to the enzyme extracts or 1.35 mL of ultrapure water. […] Triplicate incubations were conducted for the autoclaved and active extracts with spiked AMP. After AMP spiking, we mixed the solutions by inverting the vials and incubating them at 20 °C under horizontal shaking at 300 rpm. To stop enzymatic reactions at pre-defined sampling time points (i.e., 2 min, 30 min, 1 h, 2 h, and 4 h), we transferred 150 μL of the incubation solution to 450 μL of acetonitrile containing 1% (v/v) formic acid in 1.5 mL protein LoBind Eppendorf tubes, mixed the resulting solution by inverting the tube and by horizontally shaking it at 300 rpm for 2 min at 20 °C, and centrifuged samples at 16,000g for 1 min. This protocol step was conducted according to Luther et al.[9] We then transferred the supernatant into a fresh 1.5 mL protein LoBind Eppendorf tube and dried it in a SpeedVac vacuum concentrator (30 °C for approximately 6 h). To resolubilize AMPs, we added 150 μL of water containing 5% (v/v) acetonitrile and 0.1% (v/v) formic acid, vortexed the samples, and centrifuged them for 10 s at 1000g at room temperature. We transferred the solution into QuanRecovery HPLC vials (Waters, 186009186) and stored the samples at −20 °C until analysis. For method development, selected (and indicated) samples were sonicated (Sonorex Super RK 106, Bandelin, max 480 W) for 5 min at different steps of the sample preparation process.
We analyzed AMPs using UHPLC (Thermo Scientific Dionex Ultimate 3000) equipped with a Waters XSelect PREMIER CSH C18 column (article number: 186009870) coupled to HRMS (Thermo QExactive). […] We used Skyline (version 20.2.0.343) to analyze the raw data. Criteria for parent peptides and hydrolysis product identification were set as described before:[31]m/z deviation <2 ppm, MS/MS fragments with m/z deviation <5 ppm, and reasonable chromatographic peak shape. For products, the peak area had to either increase throughout the incubation experiment or first increase and then decrease.
To learn about the enzymatic hydrolysis pathways of AMPs that we found to be rapidly biotransformed by enzymes in wastewater extracts, we predicted all products of single peptide bond hydrolysis reactions and screened our data-dependent high-resolution mass spectrometry data for experimental evidence in support of the predicted hydrolysis products. These analyses were conducted for the AMPs with the highest biotransformation extents (i.e., >0.5 in at least two WWTPs), namely, cecropin P1, omiganan, and R8. The following requirements for transformation products (TPs) were defined: at least three amino acids, peak area either increases during the incubation experiment or first increases and then decreases, peak area exceeds that in AMP-free enzyme extract by >5-fold and that in spiked autoclaved extracts by >6-fold, and mass deviation <2 ppm from the calculated exact mass. Mass lists, mass deviations, and retention times of all TPs can be found in Tables S6–S11. We further predicted TPs formed via exocleavage mechanisms (i.e., cleavage of one or two terminal amino acids simultaneously from the C- and N- terminus of the peptide) and screened for these TPs in the HRMS data.
For cecropin P1, we performed absolute quantification for TPs II, III, IV, V, VI, and X and found the highest concentrations for TP III. Up to 8.8% of spiked cecropin P1 is converted to TP III during incubations with wastewater extract. For TP II, the conversion ranges from 3.7–5.7%, and for TP V and VI, conversions range between 1.5 and 4.9 and 2.1 and 2.9%, respectively. […]

[4] = tested on: dissolved extracellular wastewater enzymes derived from aeration tanks of WWTPs; details: cited from earlier work
Method: Our results on daptomycin are consistent with an earlier study that reported daptomycin concentrations to be stable during its incubation with dissolved extracellular wastewater enzymes derived from aeration tanks of WWTPs.[33] We note that daptomycin concentrations in experiments with autoclaved controls were lower compared to active extracts for ...

[5] = pool I influent extracts, WWTPs A-D, active compared with autoclaved extracts, 20 °C, up to 4 h, HPLC-HRMS, triplicate incubations

Substance: bacitracin A
removal by biotransformation in active wastewater extracts (in words) [1, 5]: did not observe substantial removal

Substance: cecropin P1 (SWLSKTAKKLENSAKKRISEGIAIAIQGGPR; UniProt P14661 14-44, looked up) [AMP from the parasitic nematode Ascaris suum; linear peptide of canonical amino acids]
spiked AMP removed by sorption [2]: up to 70%
share of spiked AMP concentration that could be transformed into the selected TPs, considering the maximum sorption potential of each TP [3]: up to 31.6%
sum of quantified TPs as share of the initially spiked AMP concentration [3]: 22.8%
biotransformation extent (eq 1, from concentrations in active and autoclaved extracts) [1]: > 0.5
removal by biotransformation in active wastewater extracts (in words) [1]: rapidly removed to nonquantifiable concentrations
concentration after 30 min of incubation in active extracts ([1]; pool I influent extracts from all tested WWTPs, 20 °C, HPLC-HRMS): below the LOQ
detectable removal between first sampling time point and 30 min in active extracts ([1]; pool I influent extracts, WWTPs A-D, all AMPs spiked together (150 μL of 10 μg/mL into 1.35 mL extract), 20 °C, 300 rpm, first point 2 min, then 30 min, HPLC-HRMS, triplicate incubations, maximum over WWTPs, limited by LOQ): up to 85%

Substance: daptomycin
daptomycin concentration during incubation with dissolved extracellular wastewater enzymes [4]: stable
removal by biotransformation in active wastewater extracts (in words) [1, 5]: did not observe substantial removal

Now from value to substance, other results behind:

removal by biotransformation in active wastewater extracts (in words) [1]: did not observe substantial removal
Substance: murepavadin

removal by biotransformation in active wastewater extracts (in words) [1]: biotransformed
Substance: colistin B

removal by biotransformation in active wastewater extracts (in words) [1]: biotransformed
detectable removal during incubation, of the amounts detected at the first time point, in active extracts ([1]; pool I influent extracts, WWTPs A-D, all AMPs spiked together (150 μL of 10 μg/mL into 1.35 mL extract), 20 °C, 300 rpm, sampling 2 min to 4 h, HPLC-HRMS, triplicate incubations, maximum over WWTPs): up to 50%
Substance: colistin A

biotransformation extent (eq 1, from concentrations in active and autoclaved extracts) [1]: > 0.5
Substance: omiganan
removal by biotransformation in active wastewater extracts (in words) [1]: rapidly removed to nonquantifiable concentrations
